Read-outs that look alike come from different tables or passages of the source.
Key:
[1] = molecular target: PTP1B (Homo sapiens (Human), UniProt P18031); experiment: pNPP inhibition assay against PTP1B; assay type: biochemical; details: pNPP at Km of the PTP
[2] = molecular target: SHP2 (Homo sapiens (Human), UniProt Q06124); experiment: pNPP inhibition assay against SHP2; assay type: biochemical; details: pNPP at Km of the PTP
[3] = molecular target: mPTPB (Mycobacterium tuberculosis (strain ATCC 25618 / H37Rv), UniProt I6WXK4); assay type: biochemical
Sequence of mPTPB (I6WXK4 whole entry, looked up): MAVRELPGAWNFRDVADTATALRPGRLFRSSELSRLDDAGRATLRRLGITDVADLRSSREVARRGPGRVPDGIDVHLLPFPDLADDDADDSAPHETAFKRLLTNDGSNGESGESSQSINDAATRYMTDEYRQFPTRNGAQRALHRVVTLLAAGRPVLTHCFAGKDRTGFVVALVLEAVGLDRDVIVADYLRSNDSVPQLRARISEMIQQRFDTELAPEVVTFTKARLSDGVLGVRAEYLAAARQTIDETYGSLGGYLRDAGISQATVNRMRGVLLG

[4] = molecular target: SHP1 (Homo sapiens (Human), UniProt P29350); experiment: pNPP inhibition assay against SHP1; assay type: biochemical; details: pNPP at Km of the PTP
Sequence of SHP1 (P29350 244-515): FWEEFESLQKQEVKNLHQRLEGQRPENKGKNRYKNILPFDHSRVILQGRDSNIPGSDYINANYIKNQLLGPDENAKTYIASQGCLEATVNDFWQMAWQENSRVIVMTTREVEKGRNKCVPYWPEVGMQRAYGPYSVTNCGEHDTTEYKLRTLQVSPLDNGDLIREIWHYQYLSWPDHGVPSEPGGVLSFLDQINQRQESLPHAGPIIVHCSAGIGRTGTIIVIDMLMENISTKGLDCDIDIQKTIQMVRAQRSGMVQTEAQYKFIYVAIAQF

[5] = Mouse liver microsomal stability; assay type: in vitro ADME; details: Mouse, after 60 min at 37° C.
Description: A sufficient oral dosage must survive first-pass clearance through the liver before reaching its biological target. The majority of drugs/xenobiotics undergo phase I metabolism, mediated by the cytochrome P450 (CYP450) family of heme-thiolate proteins predominantly in the liver. Although mouse liver microsomal (MLM) stability studies are not a perfect substitute for in vivo metabolic clearance studies, but they serve as an initial […] model system that can correlate well with human liver microsomal (HLM) stability and in vivo activity in mice. To this end, compounds 4h, 4k, 4t, 4u, and 4v were allowed to react with mouse liver microsomes and the fraction of remaining parent compound over time was determined. […] Incorporation of fluorine into drug candidates generally improves their potency, bioavailability, and metabolic stability. In addition, fluorinated molecules are in general, nontoxic and mimic the corresponding nonfluorinated analogs in their stereoelectronic properties, so the drug's affinity for the receptor either remains the same or, in some cases increases. […] So, the loss of compounds tested here is attributed only to oxidative Phase I metabolism. The high microsomal stability of these compounds could be exploited pharmacologically.
Mouse (CD-1) pooled liver microsomes purchased from Fisher Scientific, IL, USA (0.5 mg/mL, Corning Gentest 3P, cat#452702), and the assay procedures were followed as previously reported. A solution of mouse liver microsomes and 1 mM of co-factor NADPH in 1 ml of phosphate buffer saline (pH=7.4) was prewarmed to 37° C. in an Eppendorf tube. Then 10 μL of a test solution (10 mM DMSO stock) was added to initiate the reaction. Verapamil-HCl was used as a positive control. […] The incubation mixture was kept at 37° C., and 50 μL aliquots were taken at times of 0, 5, 10, 15, 30 or 60 min. Each of the aliquot was quenched using 200 μL of ice-cold acetonitrile. The mixtures were vigorously vortexed and centrifuged to remove the precipitated protein and the supernatants were analyzed by an Agilent Technologies 6470 series, triple quadrupole LC/MS spectrometer to quantitate the remaining parent compound. The percent of the parent compound remaining was calculated from the formula: % parent compound remaining=(concentration at 60 min/concentration at 0 min)*100

[6] = pNPP assay, pH 7.0, 3.0 mM pNPP

Sequence of PTP1B (P18031 3-277): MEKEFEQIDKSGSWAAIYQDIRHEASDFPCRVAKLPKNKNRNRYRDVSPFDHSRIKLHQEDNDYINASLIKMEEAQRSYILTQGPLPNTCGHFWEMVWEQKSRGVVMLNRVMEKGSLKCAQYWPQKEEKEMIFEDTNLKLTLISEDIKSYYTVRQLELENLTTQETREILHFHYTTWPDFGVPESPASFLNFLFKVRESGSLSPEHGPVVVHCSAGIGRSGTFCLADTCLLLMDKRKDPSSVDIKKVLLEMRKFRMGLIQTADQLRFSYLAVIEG
Sequence of SHP2 (Q06124 247-517): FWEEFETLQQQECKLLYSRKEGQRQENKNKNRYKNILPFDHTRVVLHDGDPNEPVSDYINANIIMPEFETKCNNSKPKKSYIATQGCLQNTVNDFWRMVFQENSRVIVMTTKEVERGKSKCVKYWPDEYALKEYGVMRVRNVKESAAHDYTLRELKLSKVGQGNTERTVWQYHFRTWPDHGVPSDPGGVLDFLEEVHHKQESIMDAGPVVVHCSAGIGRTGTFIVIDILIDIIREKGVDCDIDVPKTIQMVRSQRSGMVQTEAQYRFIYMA

O=C(O)C(=O)Nc1ccccc1 [Compound 1, Oxanilic Acid]
IC50 [1]: > 100 µM | IC50 [2]: > 100 µM

C#Cc1ccc(NC(=O)C(=O)O)cc1 [Compound 2, 2-((4-ethynylphenyl)amino)-2-oxoacetic Acid]
IC50 [1]: > 100 µM | IC50 [2]: > 100 µM

CC(C)(C)OC(=O)NCC#Cc1ccc(NC(=O)C(=O)O)cc1 [Compound 3, 2-((4-(3-((tert-butoxycarbonyl)amino)prop-1-yn-1-yl)phenyl)amino)-2-oxoacetic Acid]
IC50 [1]: > 100 µM | IC50 [2]: 58 ± 2 µM

O=C(O)C(=O)Nc1ccc(C#Cc2ccccc2)cc1 [Compound 4, 2-oxo-2-((4-(phenylethynyl)phenyl)amino)acetic Acid]
IC50 [3]: 0.257 ± 0.008 µM | fold more potency compared to the meta derivative 5 [3]: 2 fold | IC50 [1]: > 100 µM | IC50 [2]: > 100 µM | IC50 [4]: > 100 µM

COC(=O)c1ccc(C#Cc2ccc(NC(=O)C(=O)O)cc2)cc1 [Compound 4a, 2-((4-((4-(methoxycarbonyl)phenyl)ethynyl)phenyl)amino)-2-oxoacetic Acid]
IC50 [3, 6]: 0.023 ± 0.004 µM | IC50 [1]: > 100 µM | IC50 [2]: 52.6 ± 6.4 µM | IC50 [4]: > 100 µM

COC(=O)c1cc(C#Cc2ccc(NC(=O)C(=O)O)cc2)ccc1O [Compound 4b, 2-((4-((4-hydroxy-3-(methoxycarbonyl)phenyl)ethynyl)phenyl)amino)-2-oxoacetic Acid]
IC50 [3, 6]: 0.025 ± 0.003 µM | IC50 [1]: > 50 µM | IC50 [2]: 27.3 ± 3.3 µM | IC50 [4]: > 50 µM

COC(=O)c1ccc(C#Cc2ccc(NC(=O)C(=O)O)cc2)cc1O [Compound 4c, 2-((4-((3-hydroxy-4-(methoxycarbonyl)phenyl)ethynyl)phenyl)amino)-2-oxoacetic Acid]
IC50 [1]: > 50 µM | IC50 [2]: > 50 µM | IC50 [4]: > 50 µM

COC(=O)c1cc(C#Cc2ccc(NC(=O)C(=O)O)cc2)c(N(C)C)cc1O [Compound 4d, 2-((4-((2-(dimethylamino)-4-hydroxy-5-(methoxycarbonyl)phenyl)ethynyl)phenyl)amino)-2-oxoacetic Acid]
IC50 [3, 6]: 0.03 ± 0.009 µM | IC50 [1]: > 50 µM | IC50 [2]: > 50 µM | IC50 [4]: > 50 µM

COC(=O)c1cc(C#Cc2cccc(NC(=O)C(=O)O)c2)c(N(C)C)cc1O [Compound 4e, 2-((3-((2-(dimethylamino)-4-hydroxy-5-(methoxycarbonyl)phenyl)ethynyl)phenyl)amino)-2-oxoacetic Acid]
IC50 [1]: > 50 µM | IC50 [2]: > 50 µM | IC50 [4]: > 50 µM

CN(C)c1cc(O)c(C(=O)O)cc1C#Cc1ccc(NC(=O)C(=O)O)cc1 [Compound 4f, 5-((4-(carboxyformamido)phenyl)ethynyl)-4-(dimethylamino)-2-hydroxybenzoic Acid]
IC50 [3, 6]: 0.09 ± 0.008 µM | IC50 [1]: > 100 µM | IC50 [2]: 78.5 ± 4.2 µM | IC50 [4]: 59.3 ± 6 µM

O=C(O)C(=O)Nc1ccc(C#Cc2ccc(OC(F)(F)F)cc2)cc1 [Compound 4i, 2-oxo-2-((4-((4-(trifluoromethoxy)phenyl)ethynyl)phenyl)amino)acetic Acid]
IC50 [1]: > 50 µM | IC50 [2]: > 50 µM | IC50 [4]: > 50 µM

O=C(O)C(=O)Nc1ccc(C#Cc2cccc(C(F)(F)F)c2)cc1 [Compound 4j, 2-oxo-2-((4-((3-(trifluoromethyl)phenyl)ethynyl)phenyl)amino)acetic Acid]
IC50 [1]: 29.5 ± 4.1 µM | IC50 [2]: > 50 µM | IC50 [4]: > 50 µM

NS(=O)(=O)c1ccc(C#Cc2ccc(NC(=O)C(=O)O)cc2)cc1 [Compound 4l, 2-oxo-2-((4-((4-sulfamoylphenyl)ethynyl)phenyl)amino)acetic Acid]
IC50 [1]: > 50 µM | IC50 [2]: > 50 µM | IC50 [4]: 29.9 ± 3.3 µM

O=C(O)C(=O)Nc1ccc(C#Cc2ccc(O)cc2)cc1 [Compound 4m, 2-((4-((4-hydroxyphenyl)ethynyl)phenyl)amino)-2-oxoacetic Acid]
IC50 [1]: > 50 µM | IC50 [2]: > 50 µM | IC50 [4]: > 50 µM

O=C(O)C(=O)Nc1ccc(C#Cc2ccc(O)c(Br)c2)cc1 [Compound 4n, 2-((4-((3-bromo-4-hydroxyphenyl)ethynyl)phenyl)amino)-2-oxoacetic Acid]
IC50 [1]: > 50 µM | IC50 [2]: 44.5 ± 3.4 µM | IC50 [4]: > 50 µM

N#Cc1ccc(C#Cc2ccc(NC(=O)C(=O)O)cc2)cc1 [Compound 4o, 2-((4-((4-cyanophenyl)ethynyl)phenyl)amino)-2-oxoacetic Acid]
IC50 [1]: > 50 µM | IC50 [2]: > 50 µM | IC50 [4]: > 50 µM

O=C(O)C(=O)Nc1ccc(C#Cc2cc(C(F)(F)F)cc(C(F)(F)F)c2)cc1 [Compound 4p, 2-((4-((3,5-bis(trifluoromethyl)phenyl)ethynyl)phenyl)amino)-2-oxoacetic Acid]
IC50 [3]: 0.06 ± 0.009 µM | difference in IC50 values with and without Triton X-100 and with preincubation [3]: no significant difference | IC50 [1]: > 50 µM | IC50 [2]: > 50 µM | IC50 [4]: > 50 µM

CC(C)(C)OC(=O)Nc1ccc(C#Cc2ccc(NC(=O)C(=O)O)cc2)cc1 [Compound 4s, 2-((4-((4-((tert-butoxycarbonyl)amino)phenyl)ethynyl)phenyl)amino)-2-oxoacetic Acid]
IC50 [1]: > 50 µM | IC50 [2]: > 50 µM | IC50 [4]: > 50 µM

O=C(O)C(=O)Nc1ccc(C#Cc2ccc(C(F)(F)F)cc2Br)cc1 [Compound 4u, 2-((4-((2-bromo-4-(trifluoromethyl)phenyl)ethynyl)phenyl)amino)-2-oxoacetic Acid]
IC50 [1]: 16.4 ± 2.9 µM | IC50 [2]: 15.2 ± 3.4 µM | IC50 [4]: 33.8 ± 6.8 µM | Microsome Stability, % remaining [5]: 60 ± 3.8%

O=C(O)C(=O)Nc1ccc(C#Cc2ccc(C(F)(F)F)cc2F)cc1 [Compound 4v, 2-((4-((2-fluoro-4-(trifluoromethyl)phenyl)ethynyl)phenyl)amino)-2-oxoacetic Acid]
IC50 [1]: > 30 µM | IC50 [2]: > 30 µM | IC50 [4]: > 30 µM | Microsome Stability, % remaining [5]: 72 ± 2.8%

N#Cc1cc(C(F)(F)F)ccc1C#Cc1ccc(NC(=O)C(=O)O)cc1 [Compound 4w, 2-((4-((2-cyano-4-(trifluoromethyl)phenyl)ethynyl)phenyl)amino)-2-oxoacetic Acid]
IC50 [1]: 27.4 ± 6.3 µM | IC50 [2]: 10.6 ± 2.5 µM | IC50 [4]: 13.7 ± 3.1 µM

O=C(O)C(=O)Nc1ccc(C#Cc2ccc(C(F)(F)F)cc2C(F)(F)F)cc1 [Compound 4x, 2-((4-((2,4-bis(trifluoromethyl)phenyl)ethynyl)phenyl)amino)-2-oxoacetic Acid]
IC50 [1]: > 30 µM | IC50 [2]: > 30 µM | IC50 [4]: > 30 µM

O=C(O)C(=O)Nc1cccc(C#Cc2ccccc2)c1 [Compound 5, 2-oxo-2-((3-(phenylethynyl)phenyl)amino)acetic Acid]
IC50 [1]: > 100 µM | IC50 [2]: 69 ± 4 µM

O=C(O)C(=O)Nc1ccc(-c2ccccc2)cc1 [Compound 6, 2-([1,1′-biphenyl]-4-ylamino)-2-oxoacetic Acid]
IC50 [1]: 62 ± 5 µM | IC50 [2]: 29 ± 8 µM

O=C(O)C(=O)Nc1cccc(-c2ccccc2)c1 [Compound 7, 2-([1,1′-biphenyl]-3-ylamino)-2-oxoacetic Acid]
IC50 [1]: > 100 µM | IC50 [2]: > 100 µM

O=C(O)C(=O)Nc1cnc2ccccc2c1 [Compound 8, 2-oxo-2-(quinolin-3-ylamino)acetic Acid]
IC50 [3, 6]: > 10 µM | IC50 [1]: > 100 µM | IC50 [2]: > 100 µM

O=C(O)C(=O)Nc1ccc(/C=C\c2ccccc2)cc1 [Compound 9, (Z)-2-oxo-2-((4-styrylphenyl)amino)acetic Acid]
IC50 [3]: 0.77 ± 0.015 µM | fold less potency compared to corresponding alkyne analogs 4 and 4k [3]: 3 fold | IC50 [1]: > 30 µM | IC50 [2]: > 30 µM

O=C(O)C(=O)Nc1ccc(/C=C\c2ccc(C(F)(F)F)cc2)cc1 [Compound 10, (Z)-2-oxo-2-((4-(4-(trifluoromethyl)styryl)phenyl)amino)acetic Acid]
IC50 [3]: 0.684 ± 0.025 µM | fold less potency compared to corresponding alkyne analogs 4 and 4k [3]: 45 fold | IC50 [1]: > 30 µM | IC50 [2]: > 30 µM

O=C(O)C(=O)Nc1ccc(CCc2ccccc2)cc1 [Compound 11, 2-oxo-2-((4-phenethylphenyl)amino)acetic Acid]
IC50 [3]: 1.27 ± 0.2 µM | fold less potency compared to corresponding alkyne analogs 4 and 4k [3]: 5 fold | IC50 [1]: > 30 µM | IC50 [2]: > 30 µM

O=C(O)C(=O)Nc1ccc(CCc2ccc(C(F)(F)F)cc2)cc1 [Compound 12, 2-oxo-2-((4-(4-(trifluoromethyl)phenethyl)phenyl)amino)acetic Acid]
IC50 [3]: 0.197 ± 0.013 µM | fold less potency compared to corresponding alkyne analogs 4 and 4k [3]: 13 fold | IC50 [1]: > 30 µM | IC50 [2]: > 30 µM
